This note sets out measurements from ChEMBL document CHEMBL1681689, “Discovery of N-methyl-1-(1-phenylcyclohexyl)ethanamine, a novel triple serotonin, norepinephrine and dopamine reuptake inhibitor” (Bioorg Med Chem Lett, 2011).

Molecules are shown by their SMILES. The source made the active and inactive calls. The calls are words filed in the database; no cut-off is given here.

One series addresses Cytochrome P450 3A4 (Homo sapiens, UniProt P08684). Nature of the series: Inhibition of CYP3A4. The series is classed as ADME.
The next series has as its target Cytochrome P450 2D6 (Homo sapiens, UniProt P10635). Nature of the series: Inhibition of CYP2D6. The format is ADME.
The subject of series [1] is Mus musculus. Nature of the series: Antidepressant activity in mouse assessed as reduction in immobility duration pretreated 30 mins before at 30 mg/kg, po by tail suspension test. The format is functional. Set-up: scale not given: the % may be the effect or the level left.
Series [2] has as its system Mus musculus. The series can be described thus: Antidepressant activity in mouse assessed as reduction in immobility duration pretreated 30 mins before at 100 mg/kg, po by tail suspension test. The series is classed as functional. Set-up: scale not given: the % may be the effect or the level left.
Series [3] concerns Mus musculus. The series can be described thus: Antidepressant activity in mouse assessed as reduction in immobility duration pretreated 30 mins before at 10 mg/kg, po by tail suspension test. The series is classed as functional. Details: scale not given: the % may be the effect or the level left.
The nature of series [4]: Inhibition of CYP1A. The format is ADME.
Another series concerns the target Cytochrome P450 2C19 (Homo sapiens, UniProt P33261). The series can be described thus: Inhibition of CYP2C19. The series is classed as ADME.
Series [5] concerns the target T1, Voltage-gated inwardly rectifying potassium channel KCNH2 (Homo sapiens, UniProt Q12809).
The target in another series is Cytochrome P450 2C9 (Homo sapiens, UniProt P11712). The series can be described thus: Inhibition of CYP2C9. The format is ADME.
Cytochrome P450 2C9, sequence (P11712 whole entry): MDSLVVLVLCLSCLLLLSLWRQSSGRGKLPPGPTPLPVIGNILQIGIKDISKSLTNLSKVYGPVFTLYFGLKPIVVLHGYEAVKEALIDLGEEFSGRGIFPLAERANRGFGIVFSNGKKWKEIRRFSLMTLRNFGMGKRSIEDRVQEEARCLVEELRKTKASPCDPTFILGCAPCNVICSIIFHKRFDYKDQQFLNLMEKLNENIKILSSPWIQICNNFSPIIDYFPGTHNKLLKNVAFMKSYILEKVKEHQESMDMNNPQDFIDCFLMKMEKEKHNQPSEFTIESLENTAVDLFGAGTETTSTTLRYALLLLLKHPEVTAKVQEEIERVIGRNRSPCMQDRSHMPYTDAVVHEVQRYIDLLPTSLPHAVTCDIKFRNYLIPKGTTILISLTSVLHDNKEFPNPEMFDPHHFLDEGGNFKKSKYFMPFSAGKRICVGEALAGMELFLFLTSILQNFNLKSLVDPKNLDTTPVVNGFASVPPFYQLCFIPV
The nature of series [6]: Half life in mouse liver microsomes by in vitro metabolic stability assay. The series is classed as ADME, Microsome. To be noted: for half-life: liver microsomes; for t1/2: microsomes.
Series [7] is described as follows: (§1) Half life in human liver microsomes by in vitro metabolic stability assay. The format is ADME, Microsome. To be noted: liver microsomes. In general terms: Liver microsomes are vesicles of endoplasmic reticulum, rich in cytochrome P450 enzymes.
The next series concerns Liver microsomes. The series is described as §1. The format is ADME, Microsome. The settings on record: microsomes.
Series [8] relates to Plasma. Nature of the series: Drug level in mouse plasma at 30 mg/kg, po. The series is classed as functional, organism-based. Set-up: dose 30 mg/kg.
Series [9] deals with Brain. The series can be described thus: Drug level in mouse brain at 30 mg/kg, po. Details: dose 30 mg/kg. The format is functional, organism-based.
Series [10] has as its system Brain. The series can be described thus: Drug level in mouse brain at 3 mg/kg, po. The series is classed as functional, organism-based. Details: dose 3 mg/kg.
The subject of series [11] is Plasma. Nature of the series: Drug level in mouse plasma at 3 mg/kg, po. The series is classed as functional, organism-based. Details: dose 3 mg/kg.
Series [12] relates to Mus musculus. The series can be described thus: Antidepressant activity in po dosed mouse assessed as reduction of immobility duration measured by tail suspension test. The series is classed as functional, organism-based.
In series [13] the test system is Plasma. The series can be described thus: Drug level in mouse plasma at 10 mg/kg, po. The series is classed as functional, organism-based. Details: dose 10 mg/kg.
Series [14] relates to Brain. The series can be described thus: Drug level in mouse brain at 10 mg/kg, po. The format is functional, organism-based. Details: dose 10 mg/kg.
Series [15] relates to Mus musculus. The series can be described thus: Antidepressant activity in mouse assessed as reduction of immobility duration measured at first 5 mins time point at 10 or 30 mg/kg, po by tail suspension test. The series is classed as functional, organism-based. Set-up: dose 30 mg/kg.
Series [16] addresses T1, Voltage-gated inwardly rectifying potassium channel KCNH2. This is another data set of the same source.
The target in series [17] is Sodium-dependent serotonin transporter (Homo sapiens, UniProt P31645). The series is classed as cell-based, LLC-PK1.
Sodium-dependent serotonin transporter, sequence (P31645 whole entry): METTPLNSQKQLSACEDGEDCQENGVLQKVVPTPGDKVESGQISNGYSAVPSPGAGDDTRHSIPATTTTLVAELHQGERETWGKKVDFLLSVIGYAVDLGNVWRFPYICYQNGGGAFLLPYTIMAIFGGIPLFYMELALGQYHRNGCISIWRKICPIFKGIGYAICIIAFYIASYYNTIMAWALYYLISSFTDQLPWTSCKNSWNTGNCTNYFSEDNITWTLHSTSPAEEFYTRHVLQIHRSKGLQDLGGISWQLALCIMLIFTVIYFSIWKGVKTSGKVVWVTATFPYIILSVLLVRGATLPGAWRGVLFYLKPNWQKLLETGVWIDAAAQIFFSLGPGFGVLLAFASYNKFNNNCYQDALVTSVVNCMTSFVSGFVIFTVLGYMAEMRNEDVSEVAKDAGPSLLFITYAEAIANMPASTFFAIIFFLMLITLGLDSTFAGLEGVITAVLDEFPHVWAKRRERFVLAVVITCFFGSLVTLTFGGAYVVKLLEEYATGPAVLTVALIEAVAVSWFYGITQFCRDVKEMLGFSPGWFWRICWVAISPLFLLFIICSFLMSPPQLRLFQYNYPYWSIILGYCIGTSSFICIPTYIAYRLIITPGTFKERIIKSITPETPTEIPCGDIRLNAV
Series [18] deals with Sodium-dependent dopamine transporter (Homo sapiens, UniProt Q01959). The series is classed as cell-based, COS-7.
Sodium-dependent dopamine transporter, sequence (Q01959 whole entry): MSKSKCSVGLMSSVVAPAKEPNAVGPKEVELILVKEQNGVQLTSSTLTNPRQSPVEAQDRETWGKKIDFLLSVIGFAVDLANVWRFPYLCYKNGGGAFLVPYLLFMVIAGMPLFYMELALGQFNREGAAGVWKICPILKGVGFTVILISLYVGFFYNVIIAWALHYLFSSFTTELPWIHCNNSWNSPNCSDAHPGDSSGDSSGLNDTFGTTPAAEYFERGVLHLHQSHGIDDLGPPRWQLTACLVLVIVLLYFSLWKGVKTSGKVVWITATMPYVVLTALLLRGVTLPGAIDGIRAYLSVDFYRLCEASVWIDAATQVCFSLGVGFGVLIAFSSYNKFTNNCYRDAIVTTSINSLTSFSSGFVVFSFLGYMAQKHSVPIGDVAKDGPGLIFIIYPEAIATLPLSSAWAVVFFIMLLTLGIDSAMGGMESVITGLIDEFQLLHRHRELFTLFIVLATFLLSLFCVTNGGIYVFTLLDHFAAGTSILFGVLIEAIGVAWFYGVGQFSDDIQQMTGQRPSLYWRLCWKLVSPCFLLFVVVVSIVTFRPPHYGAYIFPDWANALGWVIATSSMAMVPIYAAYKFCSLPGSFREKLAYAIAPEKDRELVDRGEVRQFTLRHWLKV
Series [19] addresses Sodium-dependent noradrenaline transporter (Homo sapiens, UniProt P23975).

Cytochrome P450 2D6, sequence (P10635 whole entry): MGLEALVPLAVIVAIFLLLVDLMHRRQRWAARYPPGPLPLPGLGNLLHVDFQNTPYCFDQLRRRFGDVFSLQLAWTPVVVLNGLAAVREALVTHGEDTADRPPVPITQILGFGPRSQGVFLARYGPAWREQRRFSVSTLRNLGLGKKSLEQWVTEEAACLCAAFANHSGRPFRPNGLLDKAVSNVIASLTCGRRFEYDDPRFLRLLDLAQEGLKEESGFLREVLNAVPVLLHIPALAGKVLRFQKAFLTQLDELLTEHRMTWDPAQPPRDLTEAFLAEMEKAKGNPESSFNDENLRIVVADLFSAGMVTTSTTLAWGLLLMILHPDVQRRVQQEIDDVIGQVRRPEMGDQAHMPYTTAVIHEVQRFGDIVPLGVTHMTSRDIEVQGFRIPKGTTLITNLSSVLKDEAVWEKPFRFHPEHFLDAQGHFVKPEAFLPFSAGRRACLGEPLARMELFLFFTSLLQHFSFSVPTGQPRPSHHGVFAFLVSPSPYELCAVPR
T1 sequence (Q12809 whole entry): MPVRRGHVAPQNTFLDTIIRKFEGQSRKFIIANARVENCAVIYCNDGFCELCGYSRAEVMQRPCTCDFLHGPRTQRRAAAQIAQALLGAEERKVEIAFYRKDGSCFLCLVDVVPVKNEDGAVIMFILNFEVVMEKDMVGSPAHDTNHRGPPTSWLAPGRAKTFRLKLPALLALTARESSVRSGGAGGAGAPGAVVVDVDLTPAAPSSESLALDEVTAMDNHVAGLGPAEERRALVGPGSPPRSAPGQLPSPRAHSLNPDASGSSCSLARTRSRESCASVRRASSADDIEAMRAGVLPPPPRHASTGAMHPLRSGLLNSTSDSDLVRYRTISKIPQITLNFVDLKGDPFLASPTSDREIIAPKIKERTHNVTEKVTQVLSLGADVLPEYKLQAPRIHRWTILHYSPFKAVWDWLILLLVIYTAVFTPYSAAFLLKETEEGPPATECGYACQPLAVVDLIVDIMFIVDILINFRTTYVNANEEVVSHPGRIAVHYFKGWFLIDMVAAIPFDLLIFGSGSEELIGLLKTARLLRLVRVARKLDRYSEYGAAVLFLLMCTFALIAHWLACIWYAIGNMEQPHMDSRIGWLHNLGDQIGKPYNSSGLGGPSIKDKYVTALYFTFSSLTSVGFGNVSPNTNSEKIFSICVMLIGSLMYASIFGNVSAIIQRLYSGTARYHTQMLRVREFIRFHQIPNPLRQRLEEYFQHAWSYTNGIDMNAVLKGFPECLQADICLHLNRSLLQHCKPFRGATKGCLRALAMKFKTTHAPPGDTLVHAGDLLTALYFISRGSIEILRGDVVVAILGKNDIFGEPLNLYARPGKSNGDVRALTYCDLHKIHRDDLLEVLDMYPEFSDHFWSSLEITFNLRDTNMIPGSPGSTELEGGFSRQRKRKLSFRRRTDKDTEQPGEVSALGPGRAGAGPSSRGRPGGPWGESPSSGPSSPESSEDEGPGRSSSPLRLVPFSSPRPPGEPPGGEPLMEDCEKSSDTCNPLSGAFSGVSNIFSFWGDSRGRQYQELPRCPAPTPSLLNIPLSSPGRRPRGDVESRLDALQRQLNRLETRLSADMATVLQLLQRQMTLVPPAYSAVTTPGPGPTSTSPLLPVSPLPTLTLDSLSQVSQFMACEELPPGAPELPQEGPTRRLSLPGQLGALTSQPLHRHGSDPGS
Cytochrome P450 2C19, sequence (P33261 whole entry): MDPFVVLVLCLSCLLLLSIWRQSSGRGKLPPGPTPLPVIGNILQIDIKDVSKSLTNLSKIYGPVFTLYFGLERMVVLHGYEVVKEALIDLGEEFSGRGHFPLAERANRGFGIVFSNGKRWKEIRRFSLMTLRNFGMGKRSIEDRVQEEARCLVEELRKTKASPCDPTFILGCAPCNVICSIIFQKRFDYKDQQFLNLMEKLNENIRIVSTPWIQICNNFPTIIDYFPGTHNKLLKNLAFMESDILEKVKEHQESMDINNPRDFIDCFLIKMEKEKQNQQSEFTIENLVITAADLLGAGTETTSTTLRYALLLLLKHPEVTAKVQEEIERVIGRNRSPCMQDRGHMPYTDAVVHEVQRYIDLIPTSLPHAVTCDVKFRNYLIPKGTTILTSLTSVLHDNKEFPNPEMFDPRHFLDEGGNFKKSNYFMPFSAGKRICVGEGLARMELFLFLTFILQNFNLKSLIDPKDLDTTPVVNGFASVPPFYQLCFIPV
Cytochrome P450 3A4, sequence (P08684 whole entry): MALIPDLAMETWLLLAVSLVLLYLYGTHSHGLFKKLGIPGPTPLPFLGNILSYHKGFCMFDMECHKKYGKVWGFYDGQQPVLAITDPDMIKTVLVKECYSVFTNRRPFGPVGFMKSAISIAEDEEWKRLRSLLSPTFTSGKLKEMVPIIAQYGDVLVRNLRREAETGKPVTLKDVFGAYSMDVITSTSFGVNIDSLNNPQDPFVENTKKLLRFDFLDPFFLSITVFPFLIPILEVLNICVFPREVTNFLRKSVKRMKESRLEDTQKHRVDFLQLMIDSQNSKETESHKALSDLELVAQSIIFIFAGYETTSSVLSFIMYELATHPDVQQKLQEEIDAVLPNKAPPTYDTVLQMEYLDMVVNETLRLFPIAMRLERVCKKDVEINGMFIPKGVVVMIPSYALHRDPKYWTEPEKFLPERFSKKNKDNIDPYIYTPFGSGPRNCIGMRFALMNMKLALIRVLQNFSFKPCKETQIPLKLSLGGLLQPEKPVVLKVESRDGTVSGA
Sodium-dependent noradrenaline transporter, sequence (P23975 whole entry): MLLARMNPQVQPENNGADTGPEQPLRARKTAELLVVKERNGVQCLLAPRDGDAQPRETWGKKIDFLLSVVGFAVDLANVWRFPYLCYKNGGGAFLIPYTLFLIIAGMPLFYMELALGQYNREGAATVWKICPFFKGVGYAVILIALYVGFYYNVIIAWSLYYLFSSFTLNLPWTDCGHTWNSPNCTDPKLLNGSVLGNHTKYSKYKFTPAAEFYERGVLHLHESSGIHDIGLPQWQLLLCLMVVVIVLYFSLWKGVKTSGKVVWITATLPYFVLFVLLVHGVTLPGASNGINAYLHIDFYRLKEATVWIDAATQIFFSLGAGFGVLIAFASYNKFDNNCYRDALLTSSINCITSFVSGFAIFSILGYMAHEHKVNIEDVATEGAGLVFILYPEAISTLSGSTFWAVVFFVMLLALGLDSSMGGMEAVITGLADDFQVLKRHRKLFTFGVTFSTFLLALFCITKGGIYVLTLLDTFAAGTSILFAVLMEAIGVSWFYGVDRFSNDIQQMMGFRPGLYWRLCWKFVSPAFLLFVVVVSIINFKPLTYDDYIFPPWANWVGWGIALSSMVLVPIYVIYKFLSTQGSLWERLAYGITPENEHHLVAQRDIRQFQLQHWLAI

The term IC50 denotes the midpoint of a concentration-inhibition curve. On to `CC(N(C)C)C1(c2ccc3ccccc3c2)CCCCC1.Cl` (single isomer, unassigned; form 2), for which the IC50 at Cytochrome P450 3A4 was more than 5 µM; at Cytochrome P450 2D6, more than 5 µM; in [4], more than 25 µM; against Cytochrome P450 2C19 it was more than 5 µM; in series [5], 4.3 µM; at Cytochrome P450 2C9 it was more than 5 µM. Moreover, the Activity in the series on Mus musculus [1] turned out to be 30%; with Mus musculus [2], 37%; in the series with Mus musculus [3], 14%.
The half-life is the time in which the quantity being followed falls by half. On to `CC(N)C1(c2ccc(-c3ccccc3)cc2)CCCCC1` (configuration not stated), for which the half-life in series [6] amounted to 40 min; in series [7] it was 248 min.
Taken in the same sequence, the figures for `CNC(C)C1(c2ccc3ccccc3c2)CCCCC1` (stereo in doubt; 29) were 12 min and 90 min.
Regarding `CNC(C)C1(c2ccc(Cl)c(Cl)c2)CCCCC1` (stereo in doubt; 24), the t1/2 in series [6] was 52 min; in the series with Liver microsomes, 53 min.
The compound `CC(N(C)C)C1(c2ccc3ccccc3c2)CCCCC1` (single isomer, unassigned; enantiomer 2) registered a t1/2 in series [6] of 23 min.
In the case of `CC(N)C1(c2cccc3ccccc23)CCCCC1` (configuration not stated), the half-life is 80 min in [6] and more than 300 min in series [7].
As for `CC(N)C1(c2ccc3ccccc3c2)CCCCC1` (racemic), the half-life in [6] is 16 min; in [7] it was 140 min.
On to `CC(N)C1(c2ccc3ccccc3c2)CCCCC1` (single isomer, unassigned), for which the t1/2 in [6] is 11 min; with Liver microsomes it was 150 min.
Consider `CC(N(C)C)C1(c2ccc(Cl)c(Cl)c2)CCCCC1` (configuration not stated), for which the Cp with Plasma [8] worked out at 103 ng/mL; in the series on Plasma [11], 2 ng/mL; in the series on Plasma [13], 12 ng/mL. In addition, the values for the Drug uptake with Brain [9], in the series on Brain [10] and in the series with Brain [14] were 845 ng/g, 19 ng/g and 114 ng/g, respectively. Also, the Activity entry in the series with Mus musculus [12] was “Dose-dependent effect”. The outcome in the series on Mus musculus [15] was inactive.
In turn, `CC(N)C1(c2ccc(Cl)c(Cl)c2)CCCCC1` (single isomer, unassigned; enantiomer 1) registered a t1/2 in [6] of 84 min.
For the compound `CNC(C)C1(c2ccc(Cl)c(Cl)c2)CCCCC1.Cl` (single isomer, unassigned; enantiomer 2), the IC50 against Cytochrome P450 2D6 is 8.5 µM; in [4] it was more than 25 µM. The Activity in the series on Mus musculus [1] is on record as 3.3%; with Mus musculus [2], 25%; in the series on Mus musculus [3], 13%.
Take `CCC(N)C1(c2ccc(Cl)c(Cl)c2)CCCCC1` (racemic): the half-life in series [6] stood at 56 min; in series [7], 96 min.
Regarding `CNC(C)C1(c2ccc(Cl)c(Cl)c2)CCCCC1` (single isomer, unassigned; enantiomer 2), the values for the Cp with Plasma [8], with Plasma [11] and in the series on Plasma [13] were 544 ng/mL, 9 ng/mL and 44 ng/mL, respectively. For the same compound, the Drug uptake in the series with Brain [9] worked out at 7070 ng/g; with Brain [10], 145 ng/g; in the series on Brain [14], 782 ng/g. Moreover, in the series with Mus musculus [12], the Activity result is “Dose-dependent effect”. Further, in the series with Mus musculus [15], the result was inactive.
Consider `CC(N(C)C)C1(c2ccc3ccccc3c2)CCCCC1` (single isomer, unassigned; form 1), for which the figures for the t1/2 (in series [6]; with Liver microsomes) were 19 min and 32 min, respectively. The IC50 in series [16] worked out at 4.3 µM.
With `CC(N)C1(c2cccs2)CCCCC1` (configuration not stated), the values for the half-life in [6] and in [7] were 137 min and 152 min, respectively.
`CC(N)C1(c2ccc3ccccc3c2)CCCCC1` (single isomer, unassigned; enantiomer 2): the t1/2 in [6] stood at 14 min; in the series with Liver microsomes, 164 min.
In [6], `CC(N(C)C)C1(c2ccc(Cl)c(Cl)c2)CCCCC1` (single isomer, unassigned) gave a t1/2 of 28 min.
On to `CC(N)C1(c2ccc(OC(F)(F)F)cc2)CCCCC1` (configuration not stated), for which the results for the half-life in series [6] and in series [7] were 100 min and more than 300 min, respectively. In series [17], half-maximal inhibition (IC50) required 0.11 µM.
As for `CC(N)C1(c2ccc(Cl)c(Cl)c2)CCCCC1` (racemic), in [6], the t1/2 came out at 163 min. For the same compound, the half-life in series [7] is more than 300 min.
As to `CNC(C)C1(c2ccc(Cl)c(Cl)c2)CCCCC1` (single isomer, unassigned), the figures for the t1/2 (in series [6]; in the series with Liver microsomes) were 54 min and 71 min, respectively.
For `CC(C)CC(N)C1(c2ccc(Cl)c(Cl)c2)CCCCC1` (racemic), the half-life in [6] was determined as 59 min; in series [7], 83 min.
With `CC(C)CC(N(C)C)C1(c2ccc(Cl)c(Cl)c2)CCCCC1` (racemic), the figures for the half-life in series [6] and in [7] were more than 300 min and 18 min, respectively.
For the compound `CC(N(C)C)C1(c2ccc3ccccc3c2)CCCCC1` (single isomer, unassigned; form 2), the values for the Cp with Plasma [8], with Plasma [11] and in the series on Plasma [13] were 68 ng/mL, 2 ng/mL and 13 ng/mL, respectively. Besides, the Drug uptake was found to be 564 ng/g in the series with Brain [9], 25 ng/g with Brain [10] and 130 ng/g in the series on Brain [14]. Further, in the series with Mus musculus [12], the Activity result is “Dose-dependent effect”. Moreover, the outcome in the series on Mus musculus [15] was inactive.
As for `CC(N)C1(c2ccc(OC(C)(C)C)cc2)CCCCC1` (configuration not stated), the IC50 in series [18] was determined as 1.52 µM; in series [19], 5 µM; in [17] it was 7.1 µM.
Regarding `CC(N(C)C)C1(c2ccc3ccccc3c2)CCCCC1` (racemic), the results for the half-life in [6] and in series [7] were 22 min and 33 min, respectively.
Taken in the same sequence, the figures for `CNC(CC(C)C)C1(c2ccc(Cl)c(Cl)c2)CCCCC1` (racemic) were 18 min and 23 min.
On the same counts, the results for `CC(N(C)C)C1(c2ccc(Cl)c(Cl)c2)CCCCC1` (racemic) are 22 min and 23 min.
Take `CNC(C)C1(c2ccc3ccccc3c2)CCCCC1` (single isomer, unassigned; enantiomer 2): the t1/2 is 11 min in series [6] and 101 min in the series with Liver microsomes.
In the case of `CNC(C)C1(c2ccc(Cl)c(Cl)c2)CCCCC1` (racemic), the t1/2 in series [6] is given as 154 min; in the series with Liver microsomes it was 281 min.
On to `CC(N(C)C)C1(c2ccc(Cl)c(Cl)c2)CCCCC1.Cl` (configuration not stated), for which the IC50 at Cytochrome P450 3A4 is more than 25 µM; against Cytochrome P450 2D6 it was more than 25 µM; in series [4] it was more than 25 µM; on Cytochrome P450 2C19 it was more than 25 µM; in [5], 40 µM; against Cytochrome P450 2C9, more than 25 µM. The Activity with Mus musculus [1] was 39%; with Mus musculus [2], 27%.
`CC(N(C)C)C1(c2ccc(Cl)c(Cl)c2)CCCCC1` (single isomer, unassigned; enantiomer 1): the results for the t1/2 (in series [6]; in the series on Liver microsomes) were 25 min and 28 min, respectively. The compound also gave an IC50 in series [16] of 40 µM.
